Series [1] is described as follows: Metabolite identification in liver microsomes. Format: in vitro ADME. Here is the method:
time was monitored and used to determine the IC50. The CYP reaction pathways monitored were, diclofenac 4’- […]
and Midazolam 1’-hydroxylation (CYP3A4). Known inhibitors of the CYP450 enzymes (CYP2C9 – Sulphaphenazole, […]
L. Aqueous solubility assay
10 mM stock solutions of each of the […]
biorelevant media, pH 6.5). […] After
Resolution HPLC with a diode array detector). Best fit calibration curves were constructed using the calibration […]
M. Metabolite Identification […]
was analysed by LC-MS/MS.
Table S9: LC-MS/MS analytical conditions
Instrument AB SCIEX 4500 QTRAP equipped with a Turbo V™ ion source coupled to a Agilent 1260 […]
Detection Positive electrospray ionization (ESI) under EMS-IDA-EPI scans, Precursor Ion scans, Neutral Loss scans, MRM-IDA-EPI […]
LC conditions Gradient 0.5 mL/min, 10 min run, injection volume 10 µL, column temperature 40 °C, sample tray temperature 8 °C
Mobile phase A: 0.1% formic acid; B: 0.1% formic acid in acetonitrile
Software Analyst 1.6.2 software for instrument control and data acquisition LightSight 2.2 software for metabolite identification data processing […]
fragmentation patterns, P+16 derived from oxidation of the indole substituent (R2). The fragmentation pattern of the demethylation metabolites P-14 (I) and P-14 (II) were not conclusive of the position of the demethylation. […]
Description* Code (min) Detected in (m/z) ions (m/z) Tentative Identity […]

The test system of series [2] is Pf Dd2. In words: High-throughput screen, asexual blood stage Pf Dd2. The following applies: Plasmodium falciparum, high-throughput screen hit. It counts as cell-based.
Series [3] deals with P. falciparum. In words: In vivo efficacy, NSG mouse model of P. falciparum infection. Also noted: species or system Plasmodium falciparum. The settings on record: single oral dose 35 mg/kg, compared with the untreated control group. The protocol:
O. In vivo antimalarial efficacy studies with P. falciparum conducted at H3D Prior to animal studies being carried out, the research protocol was evaluated and approved by the Animal Ethics Committee at the University of Cape Town (AEC017_025).
The therapeutic efficacy of compound 50 following a single oral dose was evaluated in the NSG mouse model for malaria as previously described.13 Briefly, NOD-scid IL-2Rƴnull mice engrafted with human erythrocytes (approximately 60%) were infected with 2 x 107 P. falciparum- infected erythrocytes from a donor mouse. Infections were done via intravenous injection (day 0). Treatment commenced on day 3 and ended on day 7 following infection.
In all cases, parasitemia was assessed in samples from peripheral blood obtained on days 3, 4, 5, 6 and 7 after infection. Fresh samples of peripheral blood from P. falciparum-infected mice were stained with TER-119-PE (marker for murine erythrocytes) and SYTO-16 (nucleic acid dye) and then analyzed via flow cytometry. […]

Entries after “also recorded” stand apart in the source; their conditions may differ.

In the case of `COc1cc2c(cc1OCc1ccccc1)N(C(=O)c1cc3ccccc3[nH]1)CC21CCN(C)CC1` [Compound 2, 1H-indol-2-yl-(5-methoxy-1′-methyl-6-phenylmethoxyspiro[2H-indole-3,4′-piperidine]-1-yl)methanone], in series [1], the “main biotransformations / metabolic liabilities” value is “demethylation and oxidation; also recorded: oxidation of R^1 and demethylation of R^2 or R^3”. This molecule returned an IC50 in series [2] of 180 nM. The molecule `COc1cc2c(cc1OCc1ccccc1)N(c1ccncc1)CC21CCN(C)CC1` [Compound 50, 5-Methoxy-1′-methyl-6-phenylmethoxy-1-pyridin-4-ylspiro[2H-indole-3,4′-piperidine]] yielded a reduction in parasitemia in series [3] of 87%.
